From patent US20050037975A1, “Method for treatment of glutamate related disorders” (priority 1997, published 2005)
Where “and” joins values, the source holds several entries; their conditions need not be identical. Equal values may be shown once. Marks after values point to notes of the source that are not given here.

Tests used:
[1] = Plasma acetaldehyde determination after ethanol challenge; assay type: in vivo, rat; settings: 10.3 mg/kg IP in polyethylene glycol 200, ethanol challenge 1 g/kg IP
Procedure: Rats maintained as described in Ex. 4, fasted for 18 hours, were given 10.3 mg/kg of the DETC-Me SO intraperitoneally, dissolved in polyethylene glycol 200 and then challenged eight hours later with a dose of ethanol (1 g/kg; 20% v/v) also administered intraperitoneally. The rats were anesthetized with phenobarbital 30 minutes after alcohol administration and blood was taken by aortic puncture, being drawn into a heparinized syringe. Plasma acetaldehyde was determined by the method of C. O. P. Eriksson et al., Anal. Biochem., 80, 116 (1977). Plasma concentrations were determined based on a standard curve obtained with known concentrations of acetaldehyde. Control rats were treated with 1 ml/kg of polyethylene glycol 200.

ALDH2 = assay: In vitro inactivation of aldehyde dehydrogenase; assay type: biochemical
Procedure: To test whether the protective effect of DETC-MeSO in hyperbaric O2-induced convulsions in mice could be due to inhibition of succinic semi-aldehyde dehydrogenase (SSA DH), mechanistically related to ALDH2, the sensitivity of SSA DH to inactivation by DETC-MeSO was determined. Potentially, inhibition of SSA DH in brain could offset the build up of ammonia known to occur and produce more GABA. In vitro both ALDH2 and SSA DH are inactivated by DETC-MeSO at 47 M-1 s-1 and 300 M-1 s-1, respectively.

brain or liver SSA DH = biological target: T1, brain or liver SSA DH (Mus musculus, UniProt Q8BWF0); assay: In vivo effect on brain or liver SSA DH levels; settings: up to 100 mg/kg i.p.
T1 construct: with no effect on the levels of brain or liver SSA DH; from tissue; host or cells: brain or liver of treated animals
T1 sequence (Q8BWF0 36-523): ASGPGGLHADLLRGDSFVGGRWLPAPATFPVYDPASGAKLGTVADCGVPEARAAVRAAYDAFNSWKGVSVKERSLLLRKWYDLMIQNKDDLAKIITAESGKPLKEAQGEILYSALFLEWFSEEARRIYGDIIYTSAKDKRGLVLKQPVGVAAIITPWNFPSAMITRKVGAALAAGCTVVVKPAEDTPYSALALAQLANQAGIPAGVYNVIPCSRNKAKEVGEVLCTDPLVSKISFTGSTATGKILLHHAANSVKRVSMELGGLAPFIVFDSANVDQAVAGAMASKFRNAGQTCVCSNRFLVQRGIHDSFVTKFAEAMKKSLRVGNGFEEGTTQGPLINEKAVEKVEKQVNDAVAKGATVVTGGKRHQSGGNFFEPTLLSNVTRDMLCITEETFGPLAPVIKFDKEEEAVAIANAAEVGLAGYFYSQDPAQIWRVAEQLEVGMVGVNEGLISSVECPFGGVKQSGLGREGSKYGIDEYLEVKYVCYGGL

[2] = tested on: brain glutamate receptors (synaptic membranes); assay: [3H]glutamate binding to mouse brain synaptic membranes in vitro
Procedure: Binding Studies—Synaptic membranes (100 μg protein) were isolated (Y. H. Lee et al., J. Neurosci. Res. 40, 797-806 (1995)) form whole brain homogenate of male Swiss Webster mice and were incubated in 0.1 mM L-glutamate for 30 minutes at 25° C. After addition of 50 nM of [^3H]glutamate, incubation was continued for an additional 45 minutes. Reactions were terminated by centrifugation at 4° C. to separate membrane-bound from free radioactivity. […] The rate (k) and maximum percent blockage of glutamate binding (M) by DETC-MeSO (1) during the incubation time (t) was determined by fitting the equation [% inhibition]=M(1−e^−kh) to these day by use of the program Grafit (Erithicus Software Ltd.). This equation was derived for first-order inactivation by a group specific reagent that gives a partial effect. If “A” is the percent of binding activity that remains after extensive exposure (t=of the receptor to excess DETC-MeSO, then M=100−A)e^−kh+A; substituting (100−M) for “A” and [100−% inhibition] for “a” in this equation gives the one employed for purposes of data analyses. […] A second equation was employed in the analysis of binding data that defines partial, irreversible inactivation of two distinct groups of receptors [% inhibition]=M1(1−e^−k1^IT)+M2(1−e^−k1^IT), where M1 and M2 are the maximum amount of inhibition obtained for complete modification of each receptor population and k1 and k2 are the rate constants for these modifications, respectively.
Six determinations of the effect of DETC-MeSO were made at each concentration tested (1, 5, 10, 50, 100, 200, and 1000 μM) and the average value is shown with error bars for one standard deviation.

NMDA-induced seizures = NMDA-induced seizures in mice; assay type: in vivo
Procedure: (§1) Animals—Male Swiss Webster mice (20-30 g) or male Sprague-Dawley rats (250-300 g) were used. All that employed animals were conducted in strict compliance with the NIH guidelines on animal use and institutional regulations concerning animal experimentation. Animals were exposed to hyperbaric oxygen in a specify designed press chamber as previously described (M. D. Faiman et al., Biochem. Pharmacol., 20, 3049-3067 (1971); M. D. Faiman et al. Aerosp. Med.,45, 29032.(1974)). The time to first clonic-tonic seizure after brining animals to a final pressure of five atmospheres of 100% oxygen or after intraperitoneal injection of convulsants was noted by. criteria outlined previously (M. D. Faiman et al. (1971), supra M. D. Faiman et al. (1974), supra). Unless otherwise specified, the ability of DETC-MeSO to prevent seizures was tested by intraperitoneal injection of 5.2 mg/kg of DETC-MeSO 1-2 hours prior to bringing the animal to a final pressure of 5 atmospheres of 100% oxygen or intraperitoneal injection of N-methyl-D-asparate (NMA) (125 mg/kg) r L-methionine sulfoximine (MetSOX) (250 mg/kg). Evaluation of the statistics for whole animal experiments or for changes in brain glutamate binding after administration of DETC-MeSO was conducted by use of the program GraphPAD InStat from Graph PAD Software (San Diego, Calif.).

MetSOX-induced seizures = MetSOX-induced seizures in rats; assay type: in vivo
Procedure: as §1

[3] = tested on: oxygen-induced seizures (5 ATA O2); assay: Hyperbaric oxygen-induced seizures in mice; assay type: in vivo
Procedure: as §1

[4] = double exponential fit, nominal values

inactivation rate of ALDH2 (ALDH2; in vitro): 47 M⁻¹ s⁻¹
rate for enzyme (ALDH) inactivation (ALDH2; under physiological conditions): 40 M⁻¹ s⁻¹
effect on the levels of brain or liver SSA DH (brain or liver SSA DH): no effect
inhibition of glutamate binding ([2]; 0.1 mM, absence of glycine (FIG. 2)): 53%
irreversible blockage of glutamate binding ([2]; 0.1 mM, in the presence of glycine (0.1 mM)): 48±3%
M1, maximum inhibition of first receptor population [2, 4]: 15%
M2, maximum inhibition of second receptor population [2, 4]: 43%
k1, rate constant of first receptor population [2, 4]: 900 M⁻¹ s⁻¹ and 901 M⁻¹ s⁻¹
k2, rate constant of second receptor population [2, 4]: 8 M⁻¹ s⁻¹
rate (k) of blockage of glutamate binding ([2]; single exponential fit): 25±10 M^−s^−1
maximum percent blockage of glutamate binding (M) ([2]; single exponential fit, 1-1000 μM): 58±7%
Compound: CCN(CC)C(=O)[S+](C)[O-] (stereo not drawn) [DETC-MeSO, S-Methyl-N,N-Diethylthiolcarbamate Sulfoxide]
plasma acetaldehyde [1]: approximately 900 μM
effect on glutamate binding to synaptic membrane preparations ([2]; in vitro, without glycine): time-dependent, partial, and irreversible loss of their ability to bind glutamate
effect on seizures that result from NMDA administration (NMDA-induced seizures; NMDA 125 mg/kg i.p.): prevented seizures
number of animals that exhibited the effect/total number of animals in the group (NMDA-induced seizures; NMDA 125 mg/kg, 5.2 mg/kg i.p. 1-2 hours prior): (0/6)^a
mean time to seizure (NMDA-induced seizures; NMDA 125 mg/kg, 5.2 mg/kg i.p. 1-2 hours prior, observation 2 hours): >120^a min
effect on time free of MetSOX seizures (MetSOX-induced seizures): more than doubled
number of animals that exhibited the effect/total number of animals in the group (MetSOX-induced seizures; MetSOX 250 mg/kg): (4/4)
mean time to seizure (MetSOX-induced seizures; MetSOX 250 mg/kg, 5.2 mg/kg i.p. 1-2 hours prior, ± standard error): 318 ± 60 min
effect on oxygen-induced seizures ([3]; 5.2 mg/kg i.p. 2 hours before 5 atmospheres of 100% oxygen, mice): prevented the seizures
number of animals that exhibited the effect/total number of animals in the group ([3]; 5 ATA 100% O2, mice): (0/5)^a
mean time to seizure ([3]; 5 ATA 100% O2, mice, 5.2 mg/kg i.p. prior, observation one hour): >60^a min
